≈ marks a conversion by molar mass, not a printed value. Like-named read-outs stand apart in the source and are kept apart here.
Tests used:
Format in all cases: cell-based
Botrytis cinerea [1] = experiment: Volatile MIC assay (Example 10); conditions: 72 h, read-out: MIC (mg/L) BOTRCI
Protocol: (§1) 12-Well (6.5 mL volume per well) microtiter plates are used for the in vitro inhibition assay for volatile antimicrobial compounds. A 3-mL volume of full-strength Potato Dextrose Agar (PDA) is added to each well. After cooling, 1 μL of 1×10^5 per mL Botrytis cinerea and Penicillium expansum spore suspension is spot-pipetted to the center of the agar. Plates are inoculated immediately prior to volatile fungicide treatment. A Whatman #1 filter disk (Cat. No. 1001-0155) is placed, in duplicate, on the underside of a polyethylene PCR plate sealing film. […] The headspace around the inoculum is then sealed inside the well by the film with the adhering disk containing the fungicide by inverting the plates over the treated disks and sealing to prevent any of the chemical from flaking from the disk and falling onto the inoculated agar. After 3 days of storage at 23° C., the cultures are evaluated for percent growth relative to control based on measurement of fungal colony diameter.

Penicillium expansum [2] = experiment: Volatile MIC assay (Example 10); conditions: 72 h, read-out: MIC (mg/L) PENIEX
Protocol: as §1

Botrytis cinerea [3] = experiment: In vitro inhibition assay for volatile fungicide, 12-well plates (Example 7); conditions: volatile; 14 days at 4 C
Protocol: For testing activity against fungi pathogens, an in vitro inhibition assay for volatile antimicrobial compounds is developed using 12-Well (7 milliliter (mL) volume per well) microtiter plates. A 3-mL volume of full-strength Potato Dextrose Agar (PDA) is added to each well. After cooling, 1 microliter (μL) of 1×10^6 per mL Botrytis cinerea spore suspension is spot pipetted to the center of the agar. For the first experiment, inoculated plates are allowed to germinate for 5 days at 4° C. For the second experiment, plates are inoculated immediately prior to volatile fungicide treatment. Small Whatman #1 filter disks (Cat. No. 1001-0155) are placed, in duplicate, on the underside of a polyethylene PCR plate sealing film.
The acetone is permitted to evaporate for 5 minutes. The headspace around the Botrytis cinerea inoculum is then sealed inside the well by the film with the adhering disk containing the fungicide. Plates are inverted, placed over the treated disks and sealed to prevent any of the chemical from flaking from the disk and falling onto the inoculated agar. After 14 days of storage at 4° C., cultures are evaluated for percent growth relative to control. […]

B. cinerea = experiment: In vitro contact assay, amended agar (Example 24); conditions: Botrytis cinerea, 72 h, read-out: Contact MIC (mg/L) B. cinerea
Protocol: (§2) Contact assay: 6-well (16.5 mL volume per well) microtiter plates are used for an in vitro inhibition assay. […] A 7.5-mL volume of the amended media is added to each well of the microtiter plate. […] The plates are sealed with a clear film and incubated for 3 days at 23° C. After incubation, plates are evaluate for percent growth relative to acetone only control.

P. expansum = experiment: In vitro contact assay, amended agar (Example 24); conditions: Penicillium expansum, 72 h, read-out: Contact MIC (mg/L) P. expansum
Protocol: as §2

Botrytis cinerea [4] = experiment: In vitro volatile assay (Example 24); conditions: 72 h, headspace, 100% control, 3 days at 23 C, read-out: Volatile MIC (mg/L) B. cinerea
Protocol: (§3) Volatile assay: 12-well (6.5 mL volume per well) microtiter plates are used. A 3-mL volume of half strength PDA is added to each well. […] A Whatman #1 filter disk (Cat. No. 1001-0155) is placed, in duplicate, on the underside of a polyethylene PCR plate sealing film. […] The acetone is permitted to evaporate for 5 minutes. The headspace around the inoculum is then sealed inside the well by the film with the adhering disk containing the fungicide. Plates are inverted, placed over the treated disks, and sealed to prevent any of the chemical from flaking from the disk and falling onto the inoculated agar. […] Contact assay: 6-well (16.5 mL volume per well) microtiter plates are used for an in vitro inhibition assay. […] A 7.5-mL volume of the amended media is added to each well of the microtiter plate. […] The plates are sealed with a clear film and incubated for 3 days at 23° C. After incubation, plates are evaluate for percent growth relative to acetone only control.

Penicillium expansum [5] = experiment: In vitro volatile assay (Example 24); conditions: 72 h, headspace, 100% control, 3 days at 23 C, read-out: Volatile MIC (mg/L) P. expansum
Protocol: as §3

Alternaria alternata = experiment: Volatile MIC assay (Example 9); conditions: 72 h, headspace concentration, 3 days at 23 C, read-out: MIC (mg/L) ALTEAL
Protocol: (§4) A 3-mL volume of full-strength Potato Dextrose Agar (PDA) is added to each well. […] Plates are inoculated immediately prior to volatile fungicide treatment. A Whatman #1 filter disk (Cat. No. 1001-0155) is placed, in duplicate, on the underside of a polyethylene PCR plate sealing film. […] The acetone is permitted to evaporate for 5 minutes. The headspace around the inoculum is then sealed inside the well by the film with the adhering disk containing the fungicide by inverting the plates over the treated disks and sealing to prevent any of the chemical from flaking from the disk and falling onto the inoculated agar.

Botrytis cinerea [6] = experiment: Volatile MIC assay (Example 9); conditions: 72 h, headspace concentration, 3 days at 23 C, read-out: MIC (mg/L) BOTRCI
Protocol: as §4

Penicillium expansum [7] = experiment: Volatile MIC assay (Example 9); conditions: 72 h, headspace concentration, 3 days at 23 C, read-out: MIC (mg/L) PENIEX
Protocol: as §4

Monilinia fructicola = experiment: Volatile MIC assay (Example 9); conditions: 72 h, headspace concentration, 3 days at 23 C, read-out: MIC (mg/L) MONIFC
Protocol: as §4

[8] = volatile treatment, 3 days at 23 C
[9] = amended agar, 100% control, 3 days at 23 C

| Compound | MIC (Botrytis cinerea [1]; [8]) [mg/L] | MIC (Penicillium expansum [2]; [8]) [mg/L] | further results |
| --- | --- | --- | --- |
| C=CB1OCc2cc(F)ccc21 [Compound 129] | 4.5 (≈ 27.8 µM) | 8.9 (≈ 54.9 µM) |  |
| OB1OCc2ccccc21 [Compound B2, 2-(hydroxymethyl)phenylboronic acid cyclic monoester] |  |  | Rate giving 100% in vitro inhibition of Botrytis cinerea (Botrytis cinerea [3]): 0.0078 mg/disk |
| Fc1cccc(B2OCc3cc(F)ccc32)c1 [Compound 134] | 17.9 (≈ 77.8 µM) | > 35.7 |  |
| OB1OCc2cccc(F)c21 [Compound 203] | 8.9 (≈ 58.6 µM) | 143 (≈ 941 µM) |  |
| OCCOCCOB1OCc2cc(F)ccc21 [Compound 62] | 2.2 (≈ 9.17 µM) | 8.9 (≈ 37.1 µM) |  |
| N#C[B-]1(O)OCc2cc(F)ccc21.[K+] (stereo not shown) [Compound 130] |  |  | MIC (Botrytis cinerea [1]): 1.1 mg/L; MIC (Penicillium expansum [2]): 4.5 mg/L; MIC (B. cinerea): 2 mg/L; MIC (P. expansum): 0.4 mg/L |
| OCCOCCOCCOB1OCc2cc(F)ccc21 [Compound 55] | 4.5 (≈ 15.8 µM) | > 35.7 |  |
| NCCOB1OCc2ccccc21 [Compound 21] | 1.1 (≈ 6.21 µM) | 35.7 (≈ 202 µM) |  |
| N#C[B-]1(O)OCc2cc(F)ccc21.[Na+] (stereo not shown) [Compound 132] |  |  | MIC (B. cinerea; [9]): 2 mg/L; MIC (P. expansum; [9]): 2 mg/L; MIC (Botrytis cinerea [4]): 1.1 mg/L; MIC (Penicillium expansum [5]): 4.5 mg/L |
| O[B@@-]1([NH2+]Cc2ccccc2)OCc2ccccc21 [Compound 121] | 4.5 (≈ 18.7 µM) | 17.9 (≈ 74.2 µM) | MIC (B. cinerea; [9]): 10 mg/L (≈ 41.5 µM); MIC (P. expansum; [9]): 10 mg/L (≈ 41.5 µM); MIC (Botrytis cinerea [4]): 4.5 mg/L (≈ 18.7 µM); MIC (Penicillium expansum [5]): 17.9 mg/L (≈ 74.2 µM) |
| COCCOB1OCc2cc(F)ccc21 [Compound 38] | 0.6 (≈ 2.86 µM) | 8.9 (≈ 42.4 µM) |  |
| Fc1ccc(B2OCc3cc(F)ccc32)cc1 [Compound 133] | 8.9 (≈ 38.7 µM) | 35.7 (≈ 155 µM) |  |
| Fc1ccc2c(c1)COB2OCCOB1OCc2cc(F)ccc21 [Compound B] |  |  | MIC (B. cinerea; [9]): 0.4 mg/L (≈ 1.21 µM); MIC (P. expansum; [9]): 2 mg/L (≈ 6.06 µM); MIC (Botrytis cinerea [4]): 0.6 mg/L (≈ 1.82 µM); MIC (Penicillium expansum [5]): 8.9 mg/L (≈ 27 µM) |
| OB1OCc2cc(F)c(F)cc21 [Compound 204] | 8.9 (≈ 52.4 µM) | > 35.7 |  |
| C[Si](C)(C)OB1OCc2ccccc21 [Compound 122] |  |  | MIC (Botrytis cinerea [1]): 2.2 mg/L (≈ 10.7 µM) |
| Fc1ccc2c(c1)COB2c1ccccc1 [Compound 127] | 2.2 (≈ 10.4 µM) | 4.5 (≈ 21.2 µM) |  |
| NCCOB1OCc2cc(F)ccc21 [Compound 34] |  |  | MIC (Alternaria alternata): 2.2 mg/L (≈ 11.3 µM); MIC (Botrytis cinerea [6]): < 0.6 mg/L; MIC (Penicillium expansum [7]): 2.2 mg/L (≈ 11.3 µM); MIC (B. cinerea; [9]): 2 mg/L (≈ 10.3 µM); MIC (P. expansum; [9]): 0.4 mg/L (≈ 2.05 µM); MIC (Botrytis cinerea [4]): 0.6 mg/L (≈ 3.08 µM); MIC (Penicillium expansum [5]): 2.2 mg/L (≈ 11.3 µM) |
| OB1OC(N2CCOCC2)c2ccccc21 (stereo not shown) [Compound 114] | 17.9 (≈ 81.7 µM) | > 35.7 |  |
| COCCCOB1OCc2cc(F)ccc21 [Compound 39] | 0.6 (≈ 2.68 µM) | 8.9 (≈ 39.7 µM) |  |
| CCCCOB1OCc2cc(F)ccc21 [Compound 30] |  |  | MIC (Alternaria alternata): 2.2 mg/L (≈ 10.6 µM); MIC (Botrytis cinerea [6]): 2.2 mg/L (≈ 10.6 µM); MIC (Monilinia fructicola): 2.2 mg/L (≈ 10.6 µM); MIC (Penicillium expansum [7]): 8.9 mg/L (≈ 42.8 µM) |
| OB1OCc2ccc(F)cc21 [Compound 200] |  |  | MIC (Alternaria alternata): 7.3 mg/L (≈ 48 µM); MIC (Botrytis cinerea [6]): 10.6 mg/L (≈ 69.8 µM); MIC (Monilinia fructicola): 6.3 mg/L (≈ 41.5 µM); MIC (Penicillium expansum [7]): 68.3 mg/L (≈ 450 µM) |

Further lines, with some results ahead:

| MIC (Botrytis cinerea [1]; [8]) [mg/L] | MIC (Penicillium expansum [2]; [8]) [mg/L] | Compound | further results |
| --- | --- | --- | --- |
| 0.6 (≈ 2.69 µM) | 8.9 (≈ 39.9 µM) | CC(C)(N)COB1OCc2cc(F)ccc21 [Compound 115] |  |
| 2.2 (≈ 9.86 µM) | 35.7 (≈ 160 µM) | CN(C)CCOB1OCc2cc(F)ccc21 [Compound 74] |  |
| 35.7 (≈ 149 µM) | > 35.7 | OCCNCCOB1OCc2cc(F)ccc21 [Compound 73] |  |
| 1.1 (≈ 5.26 µM) | 8.9 (≈ 42.6 µM) | NCCCOB1OCc2cc(F)ccc21 [Compound 64] |  |
| 1.1 (≈ 4.53 µM) | 8.9 (≈ 36.6 µM) | Nc1ccccc1OB1OCc2cc(F)ccc21 [Compound 116] |  |
| 0.6 (≈ 2.87 µM) | 8.9 (≈ 42.6 µM) | CNCCOB1OCc2cc(F)ccc21 [Compound 87] |  |
| 35.7 (≈ 235 µM) | 143 (≈ 941 µM) | OB1OCc2c(F)cccc21 [Compound 202] |  |
| 17.9 (≈ 73.9 µM) | > 35.7 | COc1ccc(B2OCc3cc(F)ccc32)cc1 [Compound 135] | MIC (B. cinerea; [9]): 2 mg/L (≈ 8.26 µM); MIC (P. expansum; [9]): 2 mg/L (≈ 8.26 µM); MIC (Botrytis cinerea [4]): 17.9 mg/L (≈ 73.9 µM); MIC (Penicillium expansum [5]): > 35.7 mg/L |
| 4.5 (≈ 26.7 µM) | 8.9 (≈ 52.9 µM) | OB1OCc2cc(Cl)ccc21 [Compound 124] | MIC (B. cinerea; [9]): 2 mg/L (≈ 11.9 µM); MIC (P. expansum; [9]): 2 mg/L (≈ 11.9 µM); MIC (Botrytis cinerea [4]): 4.5 mg/L (≈ 26.7 µM); MIC (Penicillium expansum [5]): 8.9 mg/L (≈ 52.9 µM) |
| 1.1 (≈ 4.64 µM) | 17.9 (≈ 75.5 µM) | CN(C)CCCOB1OCc2cc(F)ccc21 [Compound 63] |  |
| 0.3 (≈ 1.7 µM) | 1.1 (≈ 6.25 µM) | C=C(C)B1OCc2cc(F)ccc21 [Compound 137] |  |
| 4.5 (≈ 21.9 µM) | 35.7 (≈ 174 µM) | CN(C)CCOB1OCc2ccccc21 [Compound 22] |  |
| 0.6 (≈ 2.38 µM) | 8.9 (≈ 35.3 µM) | OCCCCCCOB1OCc2cc(F)ccc21 [Compound 86] |  |
| 35.7 (≈ 141 µM) | > 35.7 | CN(CCO)CCOB1OCc2cc(F)ccc21 [Compound 72] |  |
| 8.9 (≈ 36.8 µM) | > 35.7 | COc1cccc(B2OCc3cc(F)ccc32)c1 [Compound 136] |  |

From patent publication US12329158B2, “Large-scale methods of uniformly coating packaging surfaces with a volatile antimicrobial to preserve food freshness” (AGROFRESH INC., priority 2013, dated 2025)
